In one data set the test system is Jurkat. The data set is described as follows: Growth inhibition of human Jurkat cells after 96 hrs. It counts as functional, cell-based.
Data set [1] can be described thus: Chemical stability in phosphate buffer saline at pH 7.4. The data set is classed as physicochemical.

On to `CC[C@@]1(OC(=O)CCC(P(=O)(O)O)P(=O)(O)O)C(=O)OCc2c1cc1n(c2=O)Cc2cc3ccccc3nc2-1` [CAMDRONATE], for which the IC50 (in general, the concentration at which inhibition is half-maximal) in the data set with Jurkat amounted to 21 nM.

Consider `COc1cc(COC(=O)NC(Cc2c[nH]c3ccccc23)C(=O)O)cc(OC)c1OC(=O)OCCCCCCC(P(=O)(O)O)P(=O)(O)O` (stereo not drawn) [TRYPDRONATE], for which the half-life (usually the time needed for the level to fall by half in the phase considered) in data set [1] was 90 h. In the data set on Jurkat, `CC[C@@]1(O)C(=O)OCc2c1cc1n(c2=O)Cc2cc3ccccc3nc2-1` [CAMPTOTHECIN] returned an IC50 of 1.4 nM.

(Values after ChEMBL document CHEMBL1141583, “Chemotherapeutic bone-targeted bisphosphonate prodrugs with hydrolytic mode of activation” (Bioorg Med Chem Lett, 2008).)
